Reference: PMC3517478 (BMC Neurology, 2012)
Numbering of substitutions follows the chain as printed.

Tests used:
[1] = biological target: T1, human α1R271Q-GlyR expressed in HEK 293 cells (Homo sapiens, UniProt P23415, R299Q); details: R271Q
T1 sequence (P23415 29-457 R299Q): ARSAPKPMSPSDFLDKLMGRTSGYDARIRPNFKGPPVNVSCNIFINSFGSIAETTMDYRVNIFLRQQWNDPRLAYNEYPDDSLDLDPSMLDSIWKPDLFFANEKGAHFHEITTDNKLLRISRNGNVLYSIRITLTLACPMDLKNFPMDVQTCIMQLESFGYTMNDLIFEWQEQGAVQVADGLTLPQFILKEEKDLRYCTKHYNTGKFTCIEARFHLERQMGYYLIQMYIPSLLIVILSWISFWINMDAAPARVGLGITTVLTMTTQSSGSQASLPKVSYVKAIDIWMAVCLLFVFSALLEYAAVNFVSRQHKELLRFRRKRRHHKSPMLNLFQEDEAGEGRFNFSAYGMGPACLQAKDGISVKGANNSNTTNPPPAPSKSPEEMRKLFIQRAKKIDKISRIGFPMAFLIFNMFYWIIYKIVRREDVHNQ
Description: (§1) Human α1-, α1R271Q-, α1R271L-, α1R271K and α1S267I-GlyR subunits were transiently transfected into human embryonic kidney cells (HEK 293, ATCC, Manassas, USA). The wild type α1-GlyR -cDNA was cloned in pCIS2 (Invitrogen, San Diego, USA) vector and provided by Prof. Heinrich Betz (Max-Planck-Institut für Hirnforschung, Frankfurt am Main, Germany). For the plasmid cDNA of the mutated α1R271Q-, α1R271L-, α1R271K- and α1S267I-GlyR the eukaryotic expression vector pcDNA1amp (Invitrogen, San Diego, USA), under the control of cytomegalovirus promoter, was used. For site-directed mutagenesis, single stranded template cDNA was synthesized from M13 origin of replication and the mutations of arginine residue (R) at position 271 to glutamine (R271Q), leucine (R271L) or lysine (R271K) and mutation of serine residue (S) at position 267 to isoleucine (S267I) were generated using standard procedures. […] Wild type and mutated α1-GlyR subunits efficiently form homomeric receptors in heterologous expression systems.
(§2) HEK 293 cells were cultured in medium containing HAMS’F-12 (Biochrom, Berlin, Germany), supplemented with 10% fetal bovine serum (FBS, Biochrom, Berlin, Germany), 100 U ml^–1 penicillin and 100μgml^–1 streptomycin (Gibco BRL, Life Technologies, Karlsruhe, Germany) at 37°C in a 5% CO2/ 95% air incubator. For transfection cells were suspended in a buffer containing 50mM K2HPO4 (Fluka BioChemika, Seelze, Germany), 20mMK-acetate (Sigma-Aldrich, Taufkirchen, Germany) and 25mM MgSO4 (Sigma-Aldrich, Taufkirchen, Germany) at pH 7.35. To visualize transfected cells, they were co-transfected with cDNA encoding for enhanced green fluorescent protein (EGFP) contained in the pEGFP-N1 expression vector (Clontech, Palo Alto, USA). The corresponding cDNA (5μg for the GlyR and 2.5μg for EGFP) was added to 400μl of the cell suspension and the mixture was rapidly transferred into the electroporation cuvette. For transfection we used an electroporation device by EquiBio (Kent, UK) and a 4mm aluminum electrode electroporation cuvette (Peqlab, Erlangen, Germany).
(§3) The phenol derivative 4-chloropropofol ([…]) was provided as pure substance by Prof. Paul M. O’Neill (University of Liverpool, England), prepared as light-protected 1M stock solution in ethanol (EtOH, J.T.Baker, Griesheim, Germany) and stored in glass vessels at −20°C.
(§4) Drug-containing vials were vigorously vortexed for 30min. Patch electrodes were filled with an intracellular solution of [mM] KCl 140, MgCl2 2, EGTA 11, HEPES 10, glucose 11, CaCl2 1 with pH 7.3, adjusted with 1 M KOH and a bath solution contained [mM] NaCl 162, KCl 5.31, NaHPO4 0.85, KH2PO4 0.22, HEPES 15, glucose 6.11, pH 7.4 adjusted with 1 M NaOH. Osmolarity of both solutions was set at 280–300 mOsmol.
(§5) Whole-cell experiments were performed at a holding potential of −30 mV with a mean seal resistance of 1 GΩ. […] A fast liquid filament switch technique was used for the application of the agonist, presented in pulses of 2 s duration every 20 s. The liquid filament switch technique is able to exchange the solution passing an outside-out patch or small whole-cells within 1–2 ms. We calculated flow rate of background solution through the chamber with 3,4 ml/min corresponding to 4% of maximal pump rate. With regard to the chamber volume of 100 μl the exchange solution time within the chamber was assessed to approximately […], dependent on cell size accordingly. Piezo-switch and small diameter capillary (ID 0.15 mm) within the measurement chamber promoted the millisecond solution exchange. […] The induced current (I) by this saturating control solution was defined as Icontrol. […] The stability of the seal was controlled during the complete experiment via control of the seal resistance. A variation of 10-20% of the basic value was regarded as tolerable.

[2] = biological target: T2, human α1R271L-GlyR expressed in HEK 293 cells (Homo sapiens, UniProt P23415, R299L); details: R271L
T2 sequence (P23415 29-457 R299L): T1 sequence (P23415 29-457 R299Q) with Q271L
Description: as §1, §2, §3, §4, §5

[3] = 10-90% of Imax, monoexponential fit

Compound: NCC(=O)O [glycine]
- Current amplitude [% of mean WT current amplitude] ± SEM [1]: 7.5±15%
- nH ± SEM (Hill coefficient), glycine activation [1]: 1.0±0.6
- current peaks ([1]; 1 mM glycine): less than 50 pA
- activation by low glycine concentrations ([1]; 10-100 μM glycine): lacks activation
- Rise time ± SEM [1, 3]: 673 ± 224 ms
- Current amplitude [% of mean WT current amplitude] ± SEM [2]: 20.5±12%
- nH ± SEM (Hill coefficient), glycine activation [2]: 1.8±0.7
- Rise time ± SEM [2, 3]: 998 ± 129 ms
- Mean current amplitude ± SEM ([2]; saturating glycine 300 mM): 336±51 pA
